{"source": "paper PMC6743422", "about": "“Preclinical disposition of MGS0274 besylate, a prodrug of a potent group II metabotropic glutamate receptor agonist MGS0008 for the treatment of schizophrenia” (Pharmacology Research & Perspectives, 2019)", "key": {"[1]": {"tested_on": "phencyclidine-induced locomotor hyperactivity", "conditions": "rat, oral 3 mg/kg; cited from earlier work"}, "[2]": {"test": "Pharmacokinetics of MGS0008 in rats (intravenous or oral)", "assay_type": "in vivo, rat", "conditions": "fasted male rats", "description": "(§1) The pharmacokinetic profiles of MGS0008 and MGS0274 were investigated in fasted male Wistar rats (n = 3) and fed male cynomolgus monkeys (n = 4). Monkeys had been given 60 g of a primate diet (PS‐A; Oriental Yeast, Tokyo, Japan) one hour before administration. For intravenous administration, MGS0008 was dissolved in saline (pH7.4) and administered to rats (3 mg/kg) and monkeys (1 mg/kg). Blood samples were collected from the tail vein (rats) or the forelimb cephalic vein (monkeys) into tubes containing EDTA‐2K at 5, 15, and 30 minutes and at 1, 2, 4, 8, and 24 hours postdose for both species, and an additional sample was collected at 12 hours postdose for monkeys. Urine samples were collected until 48 hours at 24‐hour intervals (rats) or at 0‐ to 8‐hour, 8‐ to 24‐hour, and 24‐ to 48‐hour intervals (monkeys). The plasma or urine samples was mixed with acetonitrile/methanol (9:1, v/v) containing [^13C2 ^15N]MGS0008 and centrifuged. Aliquots of the supernatant were subjected to bioanalysis using LC‐MS/MS (see Table S1‐E). For oral administration, MGS0008 was dissolved in distilled water (rats) or 0.5% w/v methylcellulose 400 (monkeys) and administered to rats (3 mg/kg) and monkeys (1 mg/kg). MGS0274 besylate was suspended in 0.5% w/v methylcellulose 400 containing 0.1% v/v Tween 80 and administered to monkeys at a dose of 2.89 mg/kg (1‐mg equivalent of MGS0008/kg). Blood samples were collected from the tail vein (rats) or the forelimb cephalic vein (monkeys) into tubes containing EDTA‐2K at 30 minutes, 1, 1.5, 2, 4, 6, 8, and 24 hours postdose for rats, and 30 minutes, 1, 2, 4, 8, 12, and 24 hours postdose for monkeys. The plasma samples were mixed with acetonitrile/methanol (9:1, v/v) containing internal standards ([^13C2 ^15N]MGS0008 and MGS0039) and centrifuged. Aliquots of the supernatant were subjected to bioanalysis using LC‐MS/MS (see Tables S1‐E and F). In the study examining the tissue distribution of MGS0008 in rats (3 mg/kg), blood samples were collected from the posterior vena cava into tubes containing EDTA‐2K under isoflurane anesthesia at 1.5, 4, 6, or 24 hours postdose. Then, the animals were euthanized by exsanguination from the abdominal aorta; cerebrospinal fluid (CSF) samples were drawn from the spinal cord space in each animal. The plasma or CSF was mixed with acetonitrile/methanol (9:1, v/v) containing [^13C2 ^15N]MGS0008 and centrifuged. Aliquots of the supernatant were subjected to bioanalysis using LC‐MS/MS (see Table S1‐E).\n(§2) The plasma concentration‐time profiles of MGS0008 and MGS0274 were analyzed using a non‐compartmental analysis method with pharmacokinetic analysis software Phoenix® WinNonlin® 6.2 or later (Certara, Princeton, NJ)."}, "mGlu2/3 receptors": {"tested_on": "mGlu2/3 receptors", "conditions": "cited from earlier work"}, "[3]": {"tested_on": "human cryopreserved hepatocytes", "test": "In vitro metabolite profiling in human cryopreserved hepatocytes", "assay_type": "in vitro ADME", "conditions": "human hepatocytes", "description": "(§3) Rat, monkey, or human cryopreserved hepatocytes in Leivovitz L‐15 medium at 0.5 million cells/mL were incubated at 37°C for 1 hour with [^14C]MGS0274 besylate at 10 μmol/L. The reaction was terminated by adding 10% w/v trichloroacetic acid solution, and the resultant mixture was centrifuged. Aliquots of the supernatant were subjected to bioanalysis using high‐performance liquid chromatography equipped with radiochemical flow detection (RI‐HPLC) (see Table S1‐B). Aliquots of the supernatant from unlabeled incubation samples and authentic standards were also injected into a liquid chromatography‐mass spectrometry (LC‐MS) system under the same chromatographic conditions to compare their chromatographic retention times and mass spectral data (see Table S1‐B)."}, "[4]": {"test": "Prediction of human pharmacokinetic parameters by single-species allometric scaling", "description": "The prediction of CLtotal, Vdss, and t1/2 in humans was performed using single‐species allometric scaling methods 14 with the pharmacokinetic parameters obtained from the intravenous administration of MGS0008 to rats and monkeys, unbound fraction of MGS0008 in rat, monkey, and human plasma (1.0), and body weight of rats (0.3 kg), monkeys (5 kg), and humans (60 kg)."}, "[5]": {"tested_on": "monkey cryopreserved hepatocytes", "test": "In vitro metabolite profiling in monkey cryopreserved hepatocytes", "assay_type": "in vitro ADME", "conditions": "monkey hepatocytes", "description": "as §3"}, "[6]": {"tested_on": "conditioned avoidance responses", "conditions": "rat; cited from earlier work"}, "[7]": {"test": "Plasma and CSF distribution of MGS0008 in rats", "assay_type": "in vivo", "conditions": "Wistar, rat, fasted male rats, MGS0008 oral 3 mg/kg", "description": "as §1, §2"}, "CYP3A": {"biological_target": "CYP3A (Homo sapiens, UniProt P08684)", "sequence (P08684 2-503)": "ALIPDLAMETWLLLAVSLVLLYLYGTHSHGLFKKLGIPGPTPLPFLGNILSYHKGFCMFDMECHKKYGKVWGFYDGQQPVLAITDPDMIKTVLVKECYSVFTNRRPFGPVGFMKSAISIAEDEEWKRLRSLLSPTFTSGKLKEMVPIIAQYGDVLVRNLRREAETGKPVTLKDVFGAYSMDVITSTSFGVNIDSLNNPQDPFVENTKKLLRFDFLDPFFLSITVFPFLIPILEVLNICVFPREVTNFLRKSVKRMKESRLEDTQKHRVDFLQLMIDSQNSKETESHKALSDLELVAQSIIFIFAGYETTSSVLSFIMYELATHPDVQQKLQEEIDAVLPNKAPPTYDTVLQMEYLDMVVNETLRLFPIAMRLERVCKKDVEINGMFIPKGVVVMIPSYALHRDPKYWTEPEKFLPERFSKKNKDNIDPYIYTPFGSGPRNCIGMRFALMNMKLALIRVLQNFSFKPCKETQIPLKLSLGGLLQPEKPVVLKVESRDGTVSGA", "test": "CYP inhibition in human liver microsomes, CYP3A", "assay_type": "in vitro ADME", "conditions": "probe testosterone (6β-hydroxytestosterone formation), human liver microsomes 0.1 mg/mL, metabolite 6β-Hydroxytestosterone", "description": "The inhibition potential of MGS0008 (0.3‐100 µmol/L) and MGS0274 besylate (0.03‐10 µmol/L) on the activity of human cytochrome P450 (CYP) isoforms (CYP1A2, 2B6, 2C8, 2C9, 2C19, 2D6, and 3A) was investigated using probe substrates for each CYP isoform and human liver microsomes, of which the final protein concentration was set at 0.1 mg/mL (see Table S2). The assay was started by spiking the reaction mixture, which had been pre‐incubated at 37°C for 5 minutes, with NADP^+. After incubation for 5 to 10 minutes, the reaction was terminated by adding acetonitrile containing an internal standard for each probe substrate, and the resultant mixture was centrifuged. Aliquots of the supernatant were subjected to bioanalysis using LC‐MS/MS (see Table S1‐D).\nThe final protein concentration in the reaction mixture was set at 0.1 mg/mL. The values in parentheses represent the final concentrations of compounds added in each reaction mixture. […]"}, "[8]": {"conditions": "Wistar, rat, MGS0008 intravenous 3 mg/kg, plasma"}, "[9]": {"conditions": "Wistar, rat, MGS0008 oral 3 mg/kg, plasma"}, "[10]": {"conditions": "single-species allometric scaling from the monkey data"}, "[11]": {"conditions": "single-species allometric scaling from the rat data"}, "[12]": {"conditions": "CSF, read-out: CSF concentration"}, "[13]": {"conditions": "plasma, read-out: Plasma concentration"}}, "note": "Values joined by “and” are separate entries in the source; they are usually repeats but may differ in a detail not shown here. Equal values may be shown once. “Also recorded” adds a separate entry of the source. Read-outs that look alike come from different tables or passages of the source.", "data": [{"compound": "N[C@]1(C(=O)O)[C@H]2[C@@H](C[C@@H]1F)[C@@H]2C(=O)O", "note": "[MGS0008, (1S,2S,3S,5R,6S)‐2‐amino‐3‐fluorobicyclo[3.1.0]hexane‐2,6‐dicarboxylic acid]", "values": [{"measurement": "phencyclidine-induced locomotor hyperactivity", "setting": "[1]", "value": "inhibited; also recorded: significantly decreased"}, {"measurement": "concentration at 24 h", "setting": "[2]; Wistar, rat, plasma, other: intravenous or oral, MGS0008 intravenous or oral 3 mg/kg, below lower limit of quantification", "value": "< 3", "unit": "ng/mL"}, {"measurement": "clearance", "setting": "[2]; Wistar, rat, plasma, MGS0008 intravenous 3 mg/kg, mean ± SD (n = 3), read-out: CLtotal (converted)", "value": 9.13, "unit": "mL/min/kg"}, {"measurement": "Vd", "setting": "[2]; Wistar, rat, plasma, MGS0008 intravenous 3 mg/kg, mean ± SD (n = 3), read-out: Vdss", "value": "0.545 ± 0.0939", "unit": "L/kg"}, {"measurement": "bioavailability", "setting": "[2]; Wistar, rat, plasma, MGS0008 oral 3 mg/kg, AUC0-∞ oral / AUC0-∞ intravenous × 100", "value": 78.1, "unit": "%"}, {"measurement": "CL renal", "setting": "[2]; Wistar, rat, urine and plasma, MGS0008 intravenous 3 mg/kg", "value": 8.52, "unit": "mL/min/kg"}, {"measurement": "AUC(0-inf)", "setting": "[2]; [8]", "value": "5480 ± 293", "unit": "ng·h/mL"}, {"measurement": "half-life", "setting": "[2]; [8]", "value": "92.4 ± 3.6", "unit": "min"}, {"measurement": "AUC(0-inf)", "setting": "[2]; [9]", "value": "4280 ± 478", "unit": "ng·h/mL"}, {"measurement": "Cmax", "setting": "[2]; [9]", "value": "1990 ± 64.3", "unit": "ng/mL"}, {"measurement": "Tmax", "setting": "[2]; [9]", "value": "1.17 ± 0.289", "unit": "h"}, {"measurement": "half-life", "setting": "[2]; [9]", "value": "58.1 ± 1.86", "unit": "min"}, {"measurement": "Urinary excretion (unchanged form)", "setting": "[2]; MGS0008 intravenous 3 mg/kg, within 48 hours, % of administered dose, 3 mg/kg", "value": "93.2% and 93.2 ± 4.69%"}, {"measurement": "agonist activity for mGlu2/3 receptors", "setting": "mGlu2/3 receptors", "value": "potent agonist activity"}, {"measurement": "further metabolism of MGS0008 in hepatocytes", "setting": "[3]", "value": "not metabolized"}, {"measurement": "predicted CLtotal in humans", "setting": "[4]; [10]", "value": 69.3, "unit": "mL/h/kg"}, {"measurement": "predicted Vdss in humans", "setting": "[4]; [10]", "value": 181, "unit": "mL/kg"}, {"measurement": "predicted t1/2 in humans", "setting": "[4]; [10]", "value": 1.8, "unit": "h"}, {"measurement": "predicted CLtotal in humans", "setting": "[4]; [11]", "value": 146, "unit": "mL/h/kg"}, {"measurement": "predicted Vdss in humans", "setting": "[4]; [11]", "value": 545, "unit": "mL/kg"}, {"measurement": "predicted t1/2 in humans", "setting": "[4]; [11]", "value": 2.6, "unit": "h"}, {"measurement": "further metabolism of MGS0008 in hepatocytes", "setting": "[5]", "value": "no metabolites"}, {"measurement": "conditioned avoidance responses", "setting": "[6]", "value": "reduced"}, {"measurement": "Kp", "setting": "[7]; CSF/plasma, read-out: CSF/plasma AUC ratio", "value": 0.028}, {"measurement": "concentration at 1.5 h", "setting": "[7]; [12]", "value": "19.1 ± 5.08", "unit": "ng/mL"}, {"measurement": "concentration at 4 h", "setting": "[7]; [12]", "value": "7.88 ± 1.04", "unit": "ng/mL"}, {"measurement": "concentration at 6 h", "setting": "[7]; [12]", "value": "4.84 ± 0.384", "unit": "ng/mL"}, {"measurement": "concentration at 24 h", "setting": "[7]; [12]", "value": "2.04 ± 0.0265", "unit": "ng/mL"}, {"measurement": "AUC(0-t)", "setting": "[7]; CSF, read-out: AUC0–24h in CSF", "value": "123 ± 7.37", "unit": "ng·h/mL"}, {"measurement": "concentration at 1.5 h", "setting": "[7]; [13]", "value": "1980 ± 431", "unit": "ng/mL"}, {"measurement": "concentration at 4 h", "setting": "[7]; [13]", "value": "138 ± 64.2", "unit": "ng/mL"}, {"measurement": "concentration at 6 h", "setting": "[7]; [13]", "value": "6.23 ± 1.83", "unit": "ng/mL"}, {"measurement": "concentration at 24 h", "setting": "[7]; plasma, below lower limit of quantification, read-out: Plasma concentration", "value": "< 3", "unit": "ng/mL"}, {"measurement": "AUC(0-t)", "setting": "[7]; plasma, read-out: AUC0–24h in plasma", "value": "4330 ± 719", "unit": "ng·h/mL"}, {"measurement": "IC50", "setting": "CYP3A", "value": "> 100", "unit": "µM"}]}]}
